Test results from US9028845B2, “Chimeric immunomodulatory compounds and methods of using the same-IV” (Dynavax Technologies Corporation, priority 2001, dated 2015).
“Also recorded” adds a separate entry of the source. Marks after values point to notes of the source that are not given here.

Assays:
human PBMCs = experiment: Human PBMC cytokine response assay (IFN-γ and IFN-α in cell-free medium by ELISA), with or without cPLGA; assay type: cell-based;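 as to IFN-α (pg/ml) mean: 20 µg/mL compound for 24 hours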;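 as to IFN-γ (pg/ml) mean: 20 µg/mL compound for 24 hours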
PBMCs = experiment: Human PBMC proliferation assay (3H-thymidine incorporation); assay type: cell-based; conditions: Experiment A; for mean cpm: 2 μg/ml
[1] = test system: hepatitis B surface antigen (HBsAg); conditions: in vivo
CD19+ B cells = experiment: Human B cell proliferation assay (3H-thymidine incorporation); conditions: 2 μg/ml; for cpm1 / cpm2 / cpm3 / mean cpm / mean of both: B cells
[2] = donor 28066, 20 ug/ml, 24 h, + PLGA = premixed with 100 μg/ml cPLGA
[3] = donor 28067, 20 ug/ml, 24 h, + PLGA = premixed with 100 μg/ml cPLGA
[4] = donor 28068, 20 ug/ml, 24 h, + PLGA = premixed with 100 μg/ml cPLGA
[5] = mean of Donors 1-2, 20 μg/ml, 24 h
[6] = mean of Donors 9-12, 20 μg/ml, 24 h
[7] = mean of donors 110, 112, 119, 120, Table 14
[8] = mean of donors 28065-28068, 20 ug/ml, 24 h, + PLGA = premixed with 100 μg/ml cPLGA
[9] = mean of donors 28185-28188, Table 15

## 5′-TCGTCGA-3′-HEG-5′-ACGTTCG-3′-HEG-5′-AGATGAT-3′ [Compound C-8]
Human PBMCs; Donor 1, 20 μg/ml, 24 h
  IFN-α (pg/ml) Donor 1: 1609 pg/mL
  IFN-γ (pg/ml) Donor 1: 1916 pg/mL
Human PBMCs; Donor 2, 20 μg/ml, 24 h
  IFN-α (pg/ml) Donor 2: 44 pg/mL
  IFN-γ (pg/ml) Donor 2: 696 pg/mL
Human PBMCs; Donor 9, 20 μg/ml, 24 h
  IFN-α Donor 9: 58
  IFN-γ Donor 9: 312
Human PBMCs; Donor 10, 20 μg/ml, 24 h
  IFN-α Donor 10: 30
  IFN-γ Donor 10: 35
Human PBMCs; Donor 11, 20 μg/ml, 24 h
  IFN-α Donor 11: 18
  IFN-γ Donor 11: 31
Human PBMCs; Donor 12, 20 μg/ml, 24 h
  IFN-α Donor 12: 49
  IFN-γ Donor 12: 28
Human PBMCs; Table 9, donor 28089
  IFN-α: 21 pg/mL
  IFN-γ: 62 pg/mL
Human PBMCs; Table 9, donor 28090
  IFN-α: 124 pg/mL
  IFN-γ: 52 pg/mL
Human PBMCs; Table 9, donor 28098
  IFN-α: 314 pg/mL
  IFN-γ: 205 pg/mL
Human PBMCs; Table 9, donor 28099
  IFN-α: 362 pg/mL
  IFN-γ: 116 pg/mL
Human PBMCs; Table 9, mean of donors
  IFN-α mean: 205 pg/mL
  IFN-γ mean: 109 pg/mL
Human PBMCs; Table 10, donor 28042
  IFN-α: 20 pg/mL
  IFN-γ: 468 pg/mL
Human PBMCs; Table 10, donor 28043
  IFN-α: 51 pg/mL
  IFN-γ: 939 pg/mL
Human PBMCs; Table 10, donor 28044
  IFN-α: 32 pg/mL
  IFN-γ: 1000 pg/mL
Human PBMCs; Table 10, donor 28045
  IFN-α: 5 pg/mL
  IFN-γ: 234 pg/mL
Human PBMCs; Table 10, mean of donors
  IFN-α mean: 27 pg/mL
  IFN-γ mean: 660 pg/mL
Human PBMCs; Table 11, donor 28042
  IFN-α: 78 pg/mL
  IFN-γ: 623 pg/mL
Human PBMCs; Table 11, donor 28043
  IFN-α: 25 pg/mL
  IFN-γ: 753 pg/mL
Human PBMCs; Table 11, donor 28044
  IFN-α: 52 pg/mL
  IFN-γ: 646 pg/mL
Human PBMCs; Table 11, donor 28045
  IFN-α: 256 pg/mL
  IFN-γ: 604 pg/mL
Human PBMCs; Table 11, mean of donors
  IFN-α mean: 103 pg/mL
  IFN-γ mean: 656 pg/mL
Human PBMCs; Table 13, donor 28156
  IFN-α: 102 pg/mL
  IFN-γ: 1612 pg/mL
Human PBMCs; Table 13, donor 28157
  IFN-α: 755 pg/mL
  IFN-γ: 742 pg/mL
Human PBMCs; Table 13, donor 28158
  IFN-α: 61 pg/mL
  IFN-γ: 340 pg/mL
Human PBMCs; Table 13, donor 28159
  IFN-α: 160 pg/mL
  IFN-γ: 197 pg/mL
Human PBMCs; Table 13, mean of donors
  IFN-α mean: 270 pg/mL
  IFN-γ mean: 723 pg/mL
Human PBMCs; donor 110, Table 14
  IFN-α: 196 pg/mL
  IFN-γ: 1152 pg/mL
Human PBMCs; donor 112, Table 14
  IFN-α: 30 pg/mL
  IFN-γ: 540 pg/mL
Human PBMCs; donor 119, Table 14
  IFN-α: 264 pg/mL
  IFN-γ: 136 pg/mL
Human PBMCs; donor 120, Table 14
  IFN-α: 42 pg/mL
  IFN-γ: 48 pg/mL
Human PBMCs; donor 28065 (high background), 20 ug/ml, 24 h, + PLGA = premixed with 100 μg/ml cPLGA, 1000 = outside assay limits
  IFN-γ (pg/ml) 28065: 1000 pg/mL
Human PBMCs; donor 28065, 20 ug/ml, 24 h, + PLGA = premixed with 100 μg/ml cPLGA
  IFN-α (pg/ml) 28065: 123 pg/mL
Human PBMCs; [2]
  IFN-α (pg/ml) 28066: 6 pg/mL
  IFN-γ (pg/ml) 28066: 19 pg/mL
Human PBMCs; [3]
  IFN-α (pg/ml) 28067: 96 pg/mL
  IFN-γ (pg/ml) 28067: 56 pg/mL
Human PBMCs; [4]
  IFN-α (pg/ml) 28068: 358 pg/mL
  IFN-γ (pg/ml) 28068: 419 pg/mL
Human PBMCs; donor 28185, Table 15
  IFN-a: 196 pg/mL
  IFN-g: 154 pg/mL
Human PBMCs; donor 28186, Table 15
  IFN-a: 31 pg/mL
  IFN-g: 25 pg/mL
Human PBMCs; donor 28187, Table 15
  IFN-a: 202 pg/mL
  IFN-g: 123 pg/mL
Human PBMCs; donor 28188, Table 15
  IFN-a: 4 pg/mL
  IFN-g: 9 pg/mL
Human PBMCs; [5]
  IFN-α (pg/ml) mean: 827 pg/mL
  IFN-γ (pg/ml) mean: 1306 pg/mL
Human PBMCs; [6]
  IFN-α mean: 39
  IFN-γ mean: 102
Human PBMCs; [7]
  IFN-α (pg/ml) mean: 133 pg/mL
  IFN-γ (pg/ml) mean: 469 pg/mL
Human PBMCs; [8]
  IFN-α (pg/ml) mean: 146 pg/mL
  IFN-γ (pg/ml) mean: 373 pg/mL
Human PBMCs; [9]
  IFN-a (pg/ml) mean: 108 pg/mL
  IFN-g (pg/ml) mean: 78 pg/mL
Human PBMCs; mean ×2, Table 15
  IFN-a (pg/ml) ×2: 217 pg/mL
Human PBMCs; mean ×4, Table 15
  IFN-g (pg/ml) ×4: 311 pg/mL
Human PBMCs; used alone (no cPLGA)
  immunomodulatory activity (IFN-γ / IFN-α secretion), in words: more active than other CG-containing CICs; also recorded: most active CICs
PBMCs; Donor 146, 2 μg/ml
  cpm1: 47202 cpm
  cpm2: 40790 cpm
  cpm3: 44811 cpm
PBMCs; Donor 146 mean
  mean cpm: 44268 cpm
PBMCs; Donor 147, 2 μg/ml
  cpm1: 38845 cpm
  cpm2: 39733 cpm
  cpm3: 27981 cpm
PBMCs; Donor 147 mean
  mean cpm: 35520 cpm
PBMCs; mean of Donors 146 and 147, 2 μg/ml
  mean of both: 39894 cpm
[1]
  Anti-HBsAg (mIU/ml) post-first, Mean: 22 mIU/ml
  Anti-HBsAg (mIU/ml) post-second, Mean: 9294** mIU/ml
CD19+ B cells; 48 h plus 8 h 3H-thymidine pulse
  B cell proliferation, in words: cause B cells to proliferate
CD19+ B cells; Donor 146, Experiment A
  cpm1: 23815 cpm
  cpm2: 30066 cpm
  cpm3: 22969 cpm
CD19+ B cells; Donor 146 mean, Experiment A
  mean cpm: 25617 cpm
CD19+ B cells; Donor 147, Experiment A
  cpm1: 20914 cpm
  cpm2: 22370 cpm
  cpm3: 23659 cpm
CD19+ B cells; Donor 147 mean, Experiment A
  mean cpm: 22314 cpm
CD19+ B cells; donor 121, Experiment B
  cpm1: 2604 cpm
  cpm2: 12078 cpm
  cpm3: 17696 cpm
CD19+ B cells; donor 121 mean, Experiment B
  mean cpm: 10793 cpm
CD19+ B cells; donor 194, Experiment B
  cpm1: 9333 cpm
  cpm2: 9391 cpm
  cpm3: 7602 cpm
CD19+ B cells; donor 194 mean, Experiment B
  mean cpm: 8775 cpm
CD19+ B cells; mean of Donors 146 and 147, Experiment A
  mean of both: 23966 cpm
CD19+ B cells; mean of donors 121 and 194, Experiment B
  mean of both: 9784 cpm
